Measurements as given in the supplement of paper PMC10307832.

Assays:
Test in all cases: relative viability (nuclei count vs DMSO), 5 days (fraction); higher = more cells survive
Bleomycin + Lapatinib = compound: CC1=C(N=C(N=C1N)[C@H](CC(=O)N)NC[C@@H](C(=O)N)N)C(=O)N[C@@H]([C@H](C2=CN=CN2)OC3C(C(C(C(O3)CO)O)O)OC4C(C(C(C(O4)CO)O)OC(=O)N)O)C(=O)N[C@H](C)[C@H]([C@H](C)C(=O)N[C@@H]([C@@H](C)O)C(=O)NCCC5=NC(=CS5)C6=NC(=CS6)C(=O)NCCC[S+](C)C)O [Bleomycin] + CS(=O)(=O)CCNCc1ccc(-c2ccc3ncnc(Nc4ccc(OCc5cccc(F)c5)c(Cl)c4)c3c2)o1 [Lapatinib] (partner 2 µM); conditions: main component drawn
Outline: (§1)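 Relative viability was taken as the ratio of nuclei in treated wells to nuclei in vehicle wells. Lung cancer cell lines in 1536-well plates received compounds by pin tool one day after seeding, either one drug alone or a fixed anchor-drug dose plus five library-drug doses (not always all listed) in √10 steps. Nuclei were counted on 4× images after 5 days of treatment, and values are medians of duplicate plates.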

Bleomycin + Dasatinib = compound: CC1=C(N=C(N=C1N)[C@H](CC(=O)N)NC[C@@H](C(=O)N)N)C(=O)N[C@@H]([C@H](C2=CN=CN2)OC3C(C(C(C(O3)CO)O)O)OC4C(C(C(C(O4)CO)O)OC(=O)N)O)C(=O)N[C@H](C)[C@H]([C@H](C)C(=O)N[C@@H]([C@@H](C)O)C(=O)NCCC5=NC(=CS5)C6=NC(=CS6)C(=O)NCCC[S+](C)C)O [Bleomycin] + Cc1nc(Nc2ncc(C(=O)Nc3c(C)cccc3Cl)s2)cc(N2CCN(CCO)CC2)n1 [Dasatinib] (partner 0.075 µM); conditions: main component drawn
Outline: as §1

Etoposide + Crizotinib = compound: COc1cc([C@@H]2c3cc4c(cc3[C@@H](O[C@@H]3O[C@@H]5CO[C@@H](C)O[C@H]5[C@H](O)[C@H]3O)[C@H]3COC(=O)[C@H]23)OCO4)cc(OC)c1O [Etoposide] + C[C@@H](Oc1cc(-c2cnn(C3CCNCC3)c2)cnc1N)c1c(Cl)ccc(F)c1Cl [Crizotinib] (partner 1 µM)
Outline: as §1

Etoposide + Olaparib = compound: COc1cc([C@@H]2c3cc4c(cc3[C@@H](O[C@@H]3O[C@@H]5CO[C@@H](C)O[C@H]5[C@H](O)[C@H]3O)[C@H]3COC(=O)[C@H]23)OCO4)cc(OC)c1O [Etoposide] + O=C(c1cc(Cc2n[nH]c(=O)c3ccccc23)ccc1F)N1CCN(C(=O)C2CC2)CC1 [Olaparib] (partner 8 µM)
Outline: as §1

Cell Line	relative viability (Bleomycin + Lapatinib; first compound 0.01 µM)	relative viability (Bleomycin + Lapatinib; first compound 0.03162 µM)	relative viability (Bleomycin + Lapatinib; first compound 0.1 µM)	relative viability (Bleomycin + Lapatinib; first compound 0.3162 µM)	relative viability (Bleomycin + Lapatinib; first compound 1 µM)	relative viability (Bleomycin + Dasatinib; first compound 0.01 µM)	relative viability (Bleomycin + Dasatinib; first compound 0.03162 µM)	relative viability (Bleomycin + Dasatinib; first compound 0.1 µM)	relative viability (Bleomycin + Dasatinib; first compound 0.3162 µM)	relative viability (Bleomycin + Dasatinib; first compound 1 µM)	relative viability (Etoposide + Crizotinib; first compound 0.01 µM)	relative viability (Etoposide + Crizotinib; first compound 0.03162 µM)	relative viability (Etoposide + Crizotinib; first compound 0.1 µM)	relative viability (Etoposide + Crizotinib; first compound 0.3162 µM)	relative viability (Etoposide + Crizotinib; first compound 1 µM)	relative viability (Etoposide + Olaparib; first compound 0.01 µM)	relative viability (Etoposide + Olaparib; first compound 0.03162 µM)	relative viability (Etoposide + Olaparib; first compound 0.1 µM)	relative viability (Etoposide + Olaparib; first compound 0.3162 µM)	relative viability (Etoposide + Olaparib; first compound 1 µM)
LC-2-ad	0.674	0.264	0.286	0.127	0.105	0.312	0.373	0.318	0.183	0.145	0.568	0.45	0.434	0.332	0.203	0.349	0.692	0.771	0.412	0.274
NCI-H1703	1.01	1	0.807	0.287	0.281	–	–	–	–	–	–	0.521	0.584	0.501	0.162	0.366	0.465	0.424	0.246	0.179
NCI-H1437	0.711	0.743	0.775	0.296	0.373	0.388	0.422	0.39	0.164	0.23	1.04	0.918	0.926	0.403	0.361	0.597	0.646	0.56	0.394	0.323
SW 1573	1.05	0.871	0.84	0.446	0.4	0.253	0.289	0.434	0.174	0.118	0.634	0.618	0.595	0.29	0.198	0.45	0.397	0.395	0.16	0.0987
Calu-6	0.729	0.614	0.456	0.168	0.174	–	–	–	–	–	0.751	0.862	0.964	0.575	0.362	0.585	0.547	0.505	0.274	0.202
EBC-1	0.217	0.215	0.199	0.206	0.196	–	–	–	–	–	0.189	0.202	–	0.197	0.194	0.641	0.689	0.532	0.405	0.266
NCI-H1623	–	–	–	–	–	0.561	0.557	0.521	0.347	0.273	–	–	–	–	–	–	–	–	–	–
NCI-H2342	–	–	–	–	–	0.311	0.335	0.339	0.274	0.277	–	–	–	–	–	0.474	0.398	0.267	0.208	0.211
SW 900	–	–	–	–	–	0.48	0.418	0.241	0.147	0.134	–	–	–	–	–	0.913	0.924	0.968	0.359	0.224
NCI-H1563	0.698	0.76	0.705	0.611	0.52	0.439	0.452	0.438	0.401	0.47	0.95	0.757	0.685	0.595	0.448	–	–	–	–	–
NCI-H1793	0.729	0.567	0.544	0.275	0.219	0.382	0.427	0.329	0.17	0.115	–	–	–	–	–	–	0.861	0.608	0.454	0.295
NCI-H1299	0.926	0.985	0.772	0.431	0.382	–	–	–	–	–	0.965	1	1.04	0.948	0.757	0.954	0.964	0.936	0.833	0.65
NCI-H1395	0.965	0.841	0.711	0.417	0.397	0.377	0.413	0.379	0.412	0.381	–	–	–	–	–	0.444	0.453	0.458	0.479	0.397
NCI-H522	–	–	–	–	–	0.791	0.716	0.518	0.43	0.328	–	–	–	–	–	0.593	0.724	0.811	0.59	0.539
A549	0.695	0.634	0.38	0.0818	0.0645	–	–	–	–	–	0.734	0.624	0.406	0.152	0.083	0.32	0.209	0.103	0.0476	0.037
NCI-H1648	–	–	–	–	–	–	–	–	–	–	–	–	–	–	–	–	0.885	0.758	0.757	0.358
IA-LM	0.476	0.7	0.623	0.274	0.336	–	–	–	–	–	0.749	1.15	0.475	0.73	0.698	0.674	0.822	0.771	0.681	0.441
ChaGo-K-1	–	–	–	–	–	0.529	0.552	0.533	0.246	0.264	1.08	0.888	0.576	0.306	0.304	0.399	0.44	0.332	0.219	0.179
NCI-H441	–	–	–	–	–	0.424	0.709	0.515	0.296	0.311	0.597	0.603	0.39	0.197	0.133	0.516	0.463	0.393	0.164	0.155
HCC-44	0.648	0.429	0.228	0.193	0.145	–	–	–	–	–	0.82	0.807	0.812	0.696	0.351	1.02	1.04	1.04	0.918	0.543
